# Measured values published in patent US10889569B2, “Condensed ring group azacyclobutyl triazole derivative, preparation method therefor and use thereof in medicine” (Jiangsu Hengrui Medicine Co., Ltd., priority 2016, dated 2021).
# Target: human OTR (Homo sapiens, UniProt P30559)
# Assay: Inhibition activity on human OTR (Fluo-4 calcium assay, HEK293/human OTR stably transfected cells)
# Format: cell-based
# Details: oxytocin 3 nM
# Experimental: The inhibition effect of the compounds of the present invention on the activity of human OTR protein expressed in HEK293/human OTR stably transfected cells was determined by the following experimental method:
# The pcDNA3.1-hOTR plasmid was transferred into HEK293 cells with the Lipofectamine® 3000 transfection reagent; G418 was added on the next day to screen, and monoclonal cell lines were selected.
# (§1) HEK293/human OTR stably transfected cells were inoculated in a 96-well plate with an inoculation density of 25,000 cells/well one day in advance. On the next day, a loading buffer containing Fluo-4 dye was formulated using the reagents in the Fluo-4 NW calcium assay kit, and the culture medium was then removed; 100 μl of the loading buffer containing Fluo-4 dye were added to each well, and the plate was incubated at 37° C. for 30 minutes. After that, the plate was moved to room temperature and equilibrated for 10 minutes. The compounds were formulated at 10^6, 10^5, 10^4, 10^3, 10^2 and 10^1 nM. 1 μl of the compounds in each concentration was added to each well, and the plate was incubated at room temperature for 10 minutes. 50 μl of oxytocin polypeptide (3 nM) were automatically added by the machine, and the values were immediately detected at 494/516 nM by the flexstation 3 microplate reader. IC50 values of the compounds were calculated by Graphpad prism software using fluorescence signals corresponding to different concentrations.
# The inhibition activity of the compounds of the present invention on human OTR was determined by the above test, and the obtained IC50 values are shown in Table 1.
row,IC50,SMILES
1,0.188 µM,"CCOCc1nnc(N2CC(n3cc(C)c4cc(F)ccc43)C2)n1-c1ccc(OC)nc1 [Example 5, 1-(1-(5-(Ethoxymethyl)-4-(6-methoxypyridin-3-yl)-4H-1,2,4-triazol-3-yl)azetidin-3-yl)-5-fluoro-3-methyl-1H-indole]"
2,0.023 µM,"COCc1nnc(N2CC(n3ccc4cc(F)ccc43)C2)n1-c1ccc(OC)nc1 [Example 25, 5-Fluoro-1-(1-(5-(methoxymethyl)-4-(6-methoxypyridin-3-yl)-4H-1,2,4-triazol-3-yl)azetidin-3-yl)-1H-indole]"

# Target: human V1aR (Homo sapiens (Human), UniProt P37288)
# Sequence (P37288 whole entry): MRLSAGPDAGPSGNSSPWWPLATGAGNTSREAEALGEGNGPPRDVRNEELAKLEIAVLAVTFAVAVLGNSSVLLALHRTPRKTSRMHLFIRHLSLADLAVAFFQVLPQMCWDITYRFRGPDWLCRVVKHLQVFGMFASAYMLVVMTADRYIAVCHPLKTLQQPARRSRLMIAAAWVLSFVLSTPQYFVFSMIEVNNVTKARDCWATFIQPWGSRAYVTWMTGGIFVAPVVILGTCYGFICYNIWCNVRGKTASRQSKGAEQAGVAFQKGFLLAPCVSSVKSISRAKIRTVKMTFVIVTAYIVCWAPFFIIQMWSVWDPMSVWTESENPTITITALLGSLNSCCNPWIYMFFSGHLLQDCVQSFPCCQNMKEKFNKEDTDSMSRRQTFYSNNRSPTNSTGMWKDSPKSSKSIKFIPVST
# Assay: Inhibition activity on human V1aR (Fluo-4 calcium assay, HEK293/human V1aR stably transfected cells)
# Format: cell-based
# Details: vasopressin 3 nM
# Experimental: The inhibition effect of the compounds of the present invention on the activity of human V1 aR protein expressed in HEK293/human V1aR stably transfected cells was determined by the following experimental method:
# The pcDNA3.1-V1aR plasmid was transferred into HEK293 cells with the Lipofectamine® 3000 transfection reagent; G418 was added on the next day to screen, and monoclonal cell lines were selected.
# as §1, with “V1aR” for “OTR”, “vasopressin” for “oxytocin”
# The inhibition activity of the compounds of the present invention on human V1aR was determined by the above test, and the obtained IC50 values are shown in Table 2.
row,IC50,SMILES
1,7 µM,"COCc1nnc(N2CC(n3cc(Cl)c4cc(F)ccc43)C2)n1-c1ccc2c(c1)OCO2 [Example 3, 1-(1-(4-(Benzo[d][1,3]dioxolan-5-yl)-5-(methoxymethyl)-4H-1,2,4-triazol-3-yl)azetidin-3-yl)-3-chloro-5-fluoro-1H-indole]"
2,2.3 µM,"CCOCc1nnc(N2CC(n3cc(Cl)c4cc(F)ccc43)C2)n1-c1ccc(OC)nc1 [Example 4, 3-Chloro-1-(1-(5-(ethoxymethyl)-4-(6-methoxypyridin-3-yl)-4H-1,2,4-triazol-3-yl)azetidin-3-yl)-5-fluoro-1H-indole]"
3,4.7 µM,"COc1ccc(-n2c(C)nnc2N2CC(n3cc(C)c4cc(F)ccc43)C2)cn1 [Example 6, 5-Fluoro-1-(1-(4-(6-methoxypyridin-3-yl)-5-methyl-4H-1,2,4-triazol-3-yl)azetidin-3-yl)-3-methyl-1H-indole]"
4,6.7 µM,"COCc1nnc(N2CC(n3cc(C(F)(F)F)c4cc(F)ccc43)C2)n1-c1ccc(OC)nc1 [Example 7, 5-Fluoro-1-(1-(5-(methoxymethyl)-4-(6-methoxypyridin-3-yl)-4H-1,2,4-triazol-3-yl)azetidin-3-yl)-3-(trifluoromethyl)-1H-indole]"
5,11.9 µM,"COCc1nnc(N2CC(n3cc(C#N)c4cc(F)ccc43)C2)n1-c1ccc(OC)nc1 [Example 13, 5-Fluoro-1-(1-(5-(methoxymethyl)-4-(6-methoxypyridin-3-yl)-4H-1,2,4-triazol-3-yl)azetidin-3-yl)-1H-indole-3-carbonitrile]"
